Bounds are passed on as bounds.

A word on the Ki: it is the dissociation constant of the complex between target and ligand, obtained from inhibition or displacement. Low readings indicate higher affinity, high ones lower affinity.

Assay [1] has as its target T1, Androgen receptor (Rattus norvegicus, UniProt P15207).
T1 sequence (P15207 whole entry): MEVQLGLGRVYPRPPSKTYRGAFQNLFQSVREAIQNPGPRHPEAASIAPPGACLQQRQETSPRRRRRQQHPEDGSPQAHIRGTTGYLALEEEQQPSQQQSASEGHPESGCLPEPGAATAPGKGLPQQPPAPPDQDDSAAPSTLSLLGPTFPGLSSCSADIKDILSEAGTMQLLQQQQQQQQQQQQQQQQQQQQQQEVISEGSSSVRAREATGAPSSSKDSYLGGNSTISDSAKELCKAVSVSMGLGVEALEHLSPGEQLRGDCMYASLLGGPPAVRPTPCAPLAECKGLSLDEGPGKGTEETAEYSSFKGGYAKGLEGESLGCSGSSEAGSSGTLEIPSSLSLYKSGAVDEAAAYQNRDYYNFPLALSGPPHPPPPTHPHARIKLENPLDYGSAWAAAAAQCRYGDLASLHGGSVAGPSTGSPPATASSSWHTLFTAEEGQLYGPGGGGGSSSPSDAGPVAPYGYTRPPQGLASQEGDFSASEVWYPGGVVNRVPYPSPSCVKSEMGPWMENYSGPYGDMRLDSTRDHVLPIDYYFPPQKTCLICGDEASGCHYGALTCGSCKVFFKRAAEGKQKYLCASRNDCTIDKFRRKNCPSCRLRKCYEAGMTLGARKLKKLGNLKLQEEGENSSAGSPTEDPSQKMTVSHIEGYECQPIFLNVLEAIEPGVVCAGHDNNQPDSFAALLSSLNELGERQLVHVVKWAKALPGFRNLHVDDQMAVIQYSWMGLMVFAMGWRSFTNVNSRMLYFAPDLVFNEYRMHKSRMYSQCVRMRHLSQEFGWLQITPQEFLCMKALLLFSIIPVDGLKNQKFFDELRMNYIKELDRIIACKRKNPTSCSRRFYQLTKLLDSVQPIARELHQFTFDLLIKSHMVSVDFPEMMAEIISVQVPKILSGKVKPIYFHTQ
Description: In vivo binding affinity for rat ventral prostate androgen receptor by displacement of [3H]R-1881

The target in assay [2] is T2, Androgen receptor (Rattus norvegicus) (UniProt P15207).
T2 sequence (whole entry): T1 sequence (P15207 whole entry)
The assay is described as follows: […] relative binding affinity (1h/18h) as ratio of binding affinities for R1881 and compound against rat ventral prostate androgen receptor using [3H]- R1881 as radioligand; <0.01/<0.01.

Assay [3] has as its target T2, Androgen receptor (Rattus norvegicus). The assay is described as follows: […] relative binding affinity (1h/18h) as ratio of binding affinities for R1881 and compound against rat ventral prostate androgen receptor using [3H]- R1881 as radioligand; 1.2/0.05.
Assay [4] shares this target. The assay is described as follows: […] relative binding affinity (1h/18h) as ratio of binding affinities for R1881 and compound against rat ventral prostate androgen receptor using [3H]- R1881 as radioligand; <.01/<.01.
Assay [5] addresses T1, Androgen receptor. The assay is described as follows: […] binding affinity for rat ventral prostate androgen receptor by displacement of [3H]R-1881. Set-up: species or system Prostate gland. On the technique in general: Loss of bound radioactivity is the signal in a displacement assay; it reports binding, not function.
Assay [6] concerns the target T2, Androgen receptor (Rattus norvegicus). The assay is described as follows: […] relative binding affinity (1h/18h) as ratio of binding affinities for R1881 and compound against rat ventral prostate androgen receptor using [3H]- R1881 as radioligand; 0.26/0.04.

Consider `C#C[C@]1(O)CCC2C3CC[C@H]4Cc5cc(S(C)(=O)=O)oc5C[C@]4(C)C3CC[C@@]21C` (some centres undefined), for which the Ki on Androgen receptor [1] was more than 29000 nM. Besides, the relative binding affinity (RBA) in assay [2] is less than 0.01.
On to `C#C[C@]1(O)CCC2C3CC[C@H]4Cc5oc(S(C)(=O)=O)nc5C[C@]4(C)C3CC[C@@]21C` (some centres undefined), for which, in assay [3], the relative binding affinity (RBA) worked out at 1.2.
On to `C#C[C@]1(O)CCC2C3CC[C@H]4Cc5sc(S(C)(=O)=O)cc5C[C@]4(C)C3CC[C@@]21C` (some centres undefined), for which, at Androgen receptor [1], the Ki is more than 29000 nM. Also, in assay [4], the relative binding affinity (RBA) is less than 0.01.
On Androgen receptor [1], `C#C[C@]1(O)CCC2C3CC[C@H]4Cc5nc(S(C)(=O)=O)sc5C[C@]4(C)C3CC[C@@]21C` (some centres undefined) yielded a Ki of 860 nM.
Compound `C#C[C@]1(O)CCC2C3CC[C@H]4Cc5nc(S(C)(=O)=O)ncc5C[C@]4(C)C3CC[C@@]21C` (some centres undefined) displayed an inhibition constant (Ki) at Androgen receptor [5] of 3000 nM. Moreover, the relative binding affinity (RBA) in assay [6] is 0.26.
The compound `C#C[C@]1(O)CCC2C3CC[C@H]4Cc5oc(S(C)(=O)=O)cc5C[C@]4(C)C3CC[C@@]21C` (some centres undefined) returned a Ki at Androgen receptor [1] of 520 nM.

The values above are taken from ChEMBL document CHEMBL1126028, “Antiandrogenic steroidal sulfonyl heterocycles. Utility of electrostatic complementarity in defining bioisosteric sulfonyl heterocycles” (J Med Chem, 1992).
